Measured values taken from PMC11895359 (Alzheimer's Research & Therapy, 2025).
Values joined by “and” are separate entries in the source; they are usually repeats but may differ in a detail not shown here. Equal entries are not always repeated. Where two headings read alike, the source gives them in different places. Each block holds one molecule with its values, some of them ahead of it.

Experiments:
muscle regeneration = conditions: aged mouse models; cited from earlier work
[1] = target: nicotinamide N-methyl transferase; conditions: competes with nicotinamide; cited from earlier work
[2] = tested on: nicotinamide N-methyl transferase; conditions: cited from earlier work
[3] = LC/MS measurement of CSF nicotinamide and metabolites in NEAT trial participants; conditions: for Kp at 12 months / concentration at 12 months: 1500 mg; for Kp at 12 months: CSF methyl-nicotinamide as percent of plasma methyl-nicotinamide
Method: CSF samples were collected at 0 and 12 months.
The injection volume was 10 μL in triplicate.
(§1) We also measured the within-participant association between analytes. […] All bar graphs show mean and standard errors.

[4] = cited from earlier work
[5] = LC/MS measurement of plasma nicotinamide and metabolites in NEAT trial participants; conditions: for concentration at 0 months: Plasma analyte concentration, this work baseline; for Plasma measure: obtained simultaneously with nicotinamide by LC/MS
Excerpt: (§2) The NEAT trial participants were recruited at UCLA and UC Irvine and were required to meet eligibility criteria that included clinical criteria for mild cognitive impairment or mild dementia due to AD, confirmed by a CSF biomarker (CSF amyloid beta 42 (Aβ42) ≤ 200 pg/mL or a ratio of total tau to Aβ42 ≥ 0.39) [9]. […] Blood was collected from all participants at 0, 6, and 12 months after overnight fasting and plasma rapidly obtained. CSF samples were collected at 0 and 12 months. Plasma and CSF samples were stored at −80 °C until further processing. All samples were included in analysis, with an interval from last dose of drug or placebo ranging from 6 to 432 h.
(§3) Each calibration dilution contained IS at a constant concentration of 1 μM. IS was also added to each patient sample to a final concentration of 0.5 μM. All solutions and QC samples were stored at −20 °C. The lower limit of quantification for each analyte was determined by finding the lowest calibration curve concentration that could both be distinguished with 95% confidence from blank readings and have a signal-to-noise ratio greater than 8 to 1 [10].
(§4) Protein was precipitated by adding 160 μL of −20 °C 99.7% acetonitrile-0.3% formic acid to the IS-sample mix. Samples were centrifuged for 20 min at 4 °C at 17,000 g. 40 μL of the supernatant was then diluted fivefold with 200 μL of 0.3% formic acid in an autosampler well plate (Waters186002643). All plasma and CSF analytes were determined simultaneously for groups of 4–20 participants from the 46 participants without knowledge of their treatment assignment.
(§5) Samples were analyzed on a Waters Acquity UPLC Quattro Premier mass spectrometer in triple quadrupole electrospray positive (ESI +) mode with an Acquity CSH™ Fluoro-Phenyl (2.1 × 50 mm, 1.7 μm) column. For liquid chromatography separation, we modified the method of Chu et al. (2021). We used 0.3% formic acid in water as the mobile A phase, and 99.7% acetonitrile/0.3% formic acid as the mobile B phase. The injection volume was 10 μL in triplicate. The sample elution gradient was programmed as 0 – 0.5 min. in 100% A; 0.5–2.5 min, linear to 95% B; re-equilibrated from 2.5–4.5 min. in 100% A. The flow rate was 0.3 mL/min, and column temperature was 50 °C.
(§6) Microsoft Excel (Version 16.82, Microsoft, Redmond, WA, USA) was used for data management and statistical analysis. Treatment allocation was unblinded after all sample analyte levels were completed by mass spectrometry. We compared the randomized placebo and treatment groups for main analyte effects by two-tailed unpaired Student’s T Tests, with significance at p < 0.05, without adjustment for multiple comparisons in this exploratory analysis. […] We also measured the within-participant association between analytes. […] All bar graphs show mean and standard errors.

CSF pTau231 = test: Change in CSF pTau231 in NEAT trial participants; format: in vivo, human; set-up: PTAU231 Month 12, individual participant / PTAU231 change, individual participant: unit not given here
Excerpt: as §1

total tau = test: Change in CSF total tau in NEAT trial participants; format: in vivo, human; conditions: mean ± S.E.
Excerpt: as §1

pTau181 = test: Change in CSF pTau181 in NEAT trial participants; format: in vivo, human; conditions: CSF nicotinamide elevated, n = 6, 12 months, mean ± S.E.
Excerpt: as §1

Aβ40 = test: Change in CSF Aβ40 in NEAT trial participants; format: in vivo, human; conditions: mean ± S.E.
Excerpt: as §1

Aβ42 = test: Change in CSF Aβ42 in NEAT trial participants; format: in vivo, human; conditions: mean ± S.E.
Excerpt: as §1

Aβ42/40 = test: Change in CSF Aβ42/40 ratio in NEAT trial participants; format: in vivo, human; conditions: mean ± S.E.
Excerpt: as §1

total tau/ Aβ42 = test: Change in CSF total tau/Aβ42 ratio in NEAT trial participants; format: in vivo, human; conditions: mean ± S.E.
Excerpt: as §1

[6] = tested on: mouse models of Alzheimer’s disease; conditions: mouse models of AD; cited from earlier work
[7] = phase 2a trial, high-dose oral nicotinamide, early AD; cited from earlier work
[8] = set-up: method as in Galla et al. 16; conditions: ref Galla et al. 16, cited from earlier work
Sirt1 = conditions: cited from earlier work
[9] = in vivo
Excerpt: as §2, §3, §4, §5, §6

[10] = obtained simultaneously with nicotinamide by LC/MS
[11] = n = 10, ± S.D., ref Clement et al. 14
[12] = n = 100, ± S.D., ref Seyedsadjadi et al. 15
[13] = CSF nicotinamide elevated, n = 6, 12 months
[14] = n = 659, ± S.D., ref Chu et al. 12
[15] = TX 1500mg, values below limit of quantification set to 0.1 uM, listed as 1-Methynicotinamide

SMILES: C[n+]1cccc2c(N)cccc21 [5-amino-1-methylquinoline]
Muscle regeneration (muscle regeneration): improve muscle regeneration

SMILES: COc1ccc(C(N)=O)cn1 [JBSNF-000088, 6-methyloxy-nicotinamide]
IC50 [1]: 1800 nM
Reduction of methyl-nicotinamide in mouse plasma [2]: 50%
Effect on body weight ([2]; mouse): reduced body weight

SMILES: C[n+]1cccc(C(N)=O)c1 [methyl-nicotinamide, 1-methyl-nicotinamide]
Percent of treated participants with CSF methyl-nicotinamide seen ([3]; 12 months, n = 9 of 19): 47%
Ratio of elevated plasma methyl-nicotinamide to CSF methyl-nicotinamide ([3]; 125/3.4, 12 months): 37
CSF 1-Methynicotinamide, Month 12, individual participant [3, 15]: 0.1 µM and 5.9 µM and 6.5 µM and 4.1 µM and 5.6 µM and 5.7 µM and 1.4 µM and 1.3 µM and 6.4 µM and 7.5 µM and 9.2 µM and 3.6 µM
CSF methyl-nicotinamide as percent of CSF nicotinamide ([3]; drug elevated subgroup, 3.4/57): 6%
Kp at 12 months ([3]; human, in vivo, drug elevated subgroup, 3.4 vs 125 μM): 0.03
Kp at 12 months ([3]; human, in vivo, drug unelevated subgroup, 2.4 vs plasma 37 μM): 0.06
concentration at 12 months ([3]; human, in vivo, CSF methyl-nicotinamide range in participants with elevated level, nicotinamide treated, 12 months): 3 to 10 µM
concentration at 12 months ([3]; human, in vivo, Mean CSF methyl-nicotinamide, CSF nicotinamide elevated subgroup, treated, 6 of 19 participants, 12 months): 3.4 µM
concentration at 12 months ([3]; human, in vivo, Mean CSF methyl-nicotinamide, CSF nicotinamide unelevated subgroup, treated, 12 months): 2.4 µM
concentration at 12 months ([3]; human, in vivo, Mean CSF methyl-nicotinamide, all nicotinamide-treated participants, 12 months): 3.1 µM
concentration at 0 months ([3]; human, in vivo, CSF analyte concentration, this work baseline, baseline before treatment, n = 47): ≤ 0.1 µM
Fold increase of mean CSF methyl-nicotinamide ([3]; treated, 12 months, vs 0.1 μM limit of quantification): at least 31 fold
Plasma analyte concentration [4, 11]: 0.05 ± 0.01 µM
Plasma analyte concentration ([4]; n = 10, ± S.D., ref Galla et al. 16): 0.185 ± 0.116 µM
Plasma analyte concentration [4, 12]: 0.033 ± 0.012 µM
Plasma analyte concentration [4, 14]: 0.1 ± 0.002 µM
CSF analyte concentration ([8]; n = 10, ± S.D.): 0.039 ± 0.025 µM
CSF methyl-nicotinamide ([8]; participants without AD): around 39 nM
Sirt1 binding and stabilization (Sirt1): binds to and stabilizes Sirt1
Fold increase of plasma methyl-nicotinamide above baseline in 6 of 7 nicotinamide unelevated participants ([5]; 12 months): at least 127 fold
Plasma methyl-nicotinamide relative to mean plasma nicotinamide, drug elevated subgroup ([5]; 12 months, 125/86): 1.5 fold
Fold increase of plasma methyl-nicotinamide above baseline and placebo, drug elevated subgroup ([5]; 12 months, 125/<0.1): ≥ 1250 fold
Plasma 1-Methynicotinamide, Month 6, individual participant [5, 15]: 72.2 µM and 6.7 µM and 98.7 µM and 8.5 µM and 73.1 µM and 120.1 µM and 30.7 µM and 77.4 µM and 114.1 µM and 160.6 µM and 61.9 µM and 130.4 µM and 151.9 µM and 186.7 µM and 248.2 µM and 186.6 µM and 191.6 µM and 68.1 µM and 186.9 µM
Plasma 1-Methynicotinamide, Month 12, individual participant [5, 15]: 101.4 µM and 6.8 µM and 0.5 µM and 93.1 µM and 19.8 µM and 119.3 µM and 87.2 µM and 118.8 µM and 0.1 µM and 127.8 µM and 33.8 µM and 71.4 µM and 101.3 µM and 15.3 µM and 73.9 µM and 116.0 µM and 293.9 µM and 219.6 µM and 242.1 µM and 152.9 µM and 1.2 µM and 76.9 µM and 15.0 µM
Plasma analyte concentration, this work baseline ([5]; baseline before treatment, n = 47, ± S.D.): 0.14 ± 0.03 µM
concentration at 12 months ([5]; human, in vivo, 1500 mg BID, Mean plasma methyl-nicotinamide in 6 of 7 treated participants without measurable plasma nicotinamide, 12 months): 12.7 µM
concentration at 12 months ([5]; human, in vivo, 1500 mg, Mean plasma methyl-nicotinamide, plasma nicotinamide elevated subgroup, treated, 12 months): 125 µM
concentration at 12 months ([5]; human, in vivo, 1500 mg, Mean plasma methyl-nicotinamide, plasma nicotinamide unelevated subgroup, treated, 9 participants, 12 months): 37 µM
concentration at 12 months ([5]; human, in vivo, 1500 mg, Plasma methyl-nicotinamide range in participants with elevated level, nicotinamide treated, 12 months): 6 to 294 µM
concentration at 0 months ([5]; human, in vivo, baseline before treatment, n = 47, ± S.D.): 0.14 µM
concentration at 6 months ([5]; human, in vivo, po, 1500 mg, Mean plasma methyl-nicotinamide, nicotinamide-treated participants, 1500 mg PO BID): 114 µM
concentration at 12 months ([5]; human, in vivo, po, 1500 mg, Mean plasma methyl-nicotinamide, nicotinamide-treated participants, 1500 mg PO BID, 12 months): 91 µM
Fold increase of mean plasma methyl-nicotinamide ([5]; treated, 6 and 12 months): > 600 fold

SMILES: O=C(O)c1cccnc1 [nicotinic acid]
CSF measure [3, 10]: below our limits of detection
Plasma measure [5]: below our limits of detection

Further lines, with some results ahead:

CSF measure [3, 10]: below our limits of detection
concentration at 0 months ([5]; human, plasma, baseline before treatment, n = 47, ± S.D.): < 1.2 µM
Plasma measure [5]: below our limits of detection
Plasma NAD+ (not measurable above) ([5]; this work): < 1.2 nM
SMILES: NC(=O)c1ccc[n+]([C@@H]2O[C@H](COP(=O)([O-])OP(=O)(O)OC[C@H]3O[C@@H](n4cnc5c(N)ncnc54)[C@H](O)[C@@H]3O)[C@@H](O)[C@H]2O)c1 [NAD^+, Nicotinamide Adenine Dinucleotide]
Plasma analyte concentration [4, 11]: 0.008 ± 0.02 µM
Plasma analyte concentration [4, 12]: 0.023 ± 0.012 µM

Percent of treated participants with elevated plasma nicotinamide ([5]; 12 months, n = 14 of 23): 61%
concentration at 12 months ([5]; human, plasma, oral, 1500 mg, Mean plasma nicotinamide, drug elevated subgroup, treated, plasma nicotinamide > […], 12 months): 86 µM
concentration at 12 months ([5]; human, plasma, oral, 1500 mg, Mean plasma nicotinamide, drug unelevated subgroup, treated, plasma nicotinamide ≤ […], 12 months): 0.7 µM
concentration at 27 h ([5]; human, plasma, oral, 1500 mg, Plasma nicotinamide, one participant, treated, sample 27 h after last dose): 2 µM
concentration at 6 months ([5]; human, plasma, po, 1500 mg, Mean plasma nicotinamide, nicotinamide-treated participants, 1500 mg PO BID): 73 µM
concentration at 12 months ([5]; human, plasma, po, 1500 mg, Mean plasma nicotinamide, nicotinamide-treated participants, 1500 mg PO BID, 12 months): 52 µM
SMILES: NC(=O)c1cccnc1 [Nicotinamide]
PTAU231 Month 12, individual participant (CSF pTau231; TX 1500mg): 34.3 and 98.8 and 66 and 31.3 and 12.2 and 14.6 and 15.1 and 68.8 and 21.2 and 10.9 and 29 and 49.5 and 6.6 and 52.5 and 20.1 and 65.3 and 41 and 6.2 and 37
PTAU231 change, individual participant (CSF pTau231; TX 1500mg, Month 12 minus baseline): -12 and 24 and -20 and -24.5 and -2.9 and -10.4 and -17.7 and 29.5 and -11.6 and 3.1 and 7.6 and 1.5 and -0.3 and -15 and -25.2 and -8.5 and -1.5 and -5.3
PTAU231 % change, individual participant (CSF pTau231; TX 1500mg, Month 12 vs baseline): -26% and 32% and -23% and -44% and -19% and -42% and -54% and 75% and -35% and 40% and 36% and 3% and -4% and -22% and -1% and -28% and -17% and -13%
Percent Change in pTau231 (CSF pTau231; all treated participants, 12 months): -9%
Decrease of pTau231 from baseline (CSF pTau231; six treated participants with elevated CSF nicotinamide, 12 months): 34%
Percent Change in pTau231 (CSF pTau231; treated, CSF nicotinamide elevated (six participants), 12 months): -34%
Increase of pTau231 from baseline (CSF pTau231; treated, CSF nicotinamide unelevated group, 12 months): 3%
Percent Change in pTau231 (CSF pTau231; treated, CSF nicotinamide unelevated, 12 months): 3%
Percent Change in pTau231 (CSF pTau231; treated, plasma nicotinamide elevated, 12 months): -4%
Percent Change in pTau231 (CSF pTau231; treated, plasma nicotinamide unelevated, 12 months): -15%
Change in total tau (total tau; [13]): -35 ± 84 pg/mL
Change in total tau (total tau; all treated, n = 19, 12 months): -8.6 ± 54 pg/mL
Change in pTau181 (pTau181): 1.1 ± 14 pg/mL
Change in Aβ40 (Aβ40; [13]): -1823 ± 1094 pg/mL
Change in Aβ40 (Aβ40; all treated, n = 19, 12 months): -2307 ± 593 pg/mL
Change in Aβ42 (Aβ42; [13]): -75 ± 44 pg/mL
Change in Aβ42 (Aβ42; all treated, n = 19, 12 months): -127 ± 38 pg/mL
Change in Aβ42/40 (Aβ42/40; [13]): −2.1 ± 4%
Change in Aβ42/40 (Aβ42/40; all treated, n = 19, 12 months): −3.7 ± 1.7%
Change in total tau/ Aβ42 (total tau/ Aβ42; [13]): 35 ± 15%
Change in total tau/ Aβ42 (total tau/ Aβ42; all treated, n = 19, 12 months): 41 ± 7%
Plasma analyte concentration [4, 11]: 38 ± 11 µM
Plasma analyte concentration ([4]; n = 54, ± S.D., ref Ibrahim et al. 13): 1.2 ± 0.14 µM
Plasma analyte concentration [4, 12]: 32 ± 11 µM
Plasma analyte concentration [4, 14]: 0.9 ± 0.02 µM
Cognitive function [6]: improved cognitive function
Safety and tolerability [7]: good safety and tolerability

CSF measure ([3]; in vivo): below our limits of detection
Plasma measure [9]: below our limits of detection
SMILES: NC(=O)c1ccc[n+]([C@@H]2O[C@H](COP(=O)([O-])O)[C@@H](O)[C@H]2O)c1 [nicotinamide mononucleotide]
